Experimental findings from PubChem BioAssay AID449764 (Southern Research Specialized Biocontainment Screening …, 2010) are described below.

By IC50 is commonly meant the concentration needed to halve the response being measured. Broadly, the IC90 is the concentration needed for an effect of 90%.

The subject of the experiment is Mycobacterium tuberculosis H37Rv growth inhibition, no glycerol. Description: Confirmatory growth inhibition assay, Mycobacterium tuberculosis H37Rv, absence of glycerol (AID 449764).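 On all read-outs here: growth read after 7 days of incubation.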 Particulars: for IC90: measured here: IC90 growth inhibition.

In the case of `CCCC(NCC(O)COc1ccc(-c2ccccc2)cc1)c1ccccc1` (stereo not given), the IC50 is 12.8 µM and the IC90 came out at 14.7 µM.
The corresponding values for `C=CCC1(CC=C)CCCN1C(=O)c1cc(COc2ccc(-n3cncn3)cc2)on1` are 47.3 µM and 57.4 µM.
In the same order, the values of `CC(C)OC(=O)c1ccc(COC(=O)c2cnccn2)cc1` are 18 µM and greater than 100 µM.
Take `O=[N+]([O-])c1cnc(Nc2ccc(Cl)cn2)c([N+](=O)[O-])c1`: the IC50 is 90.3 µM and the IC90 turned out to be 99.4 µM.
With `S=C(NCCc1ccccc1)NN=C1CCCCCC1`, the IC50 was 45.8 µM and the IC90 came to 50.1 µM.
In the case of `Cc1ccc(-n2nc3c(N4CCC(C(=O)NCc5ccccc5C)CC4)nnc(C)c3c2C)cc1`, the IC50 was 71.8 µM and the IC90 is greater than 100 µM.
The corresponding values for `COc1cc(/C=N/n2c(-c3ccc4c(c3)NC(=O)CO4)csc2=Nc2cccc(C)c2)ccc1O` are 37.8 µM and greater than 100 µM.
In the case of `COc1ccccc1C1=NOC(COC(=O)c2ccc([N+](=O)[O-])cc2)C1` (stereo not given), the IC50 is 47.7 µM and the IC90 was greater than 100 µM.
Consider `Cc1cc(NC(=O)CCl)no1`, for which the 50% inhibitory concentration (IC50) is 2.63 µM and the IC90 was 5.19 µM.
The corresponding values for `Cc1cc(Cl)ccc1OCCCC(=O)NO` are 65.1 µM and greater than 100 µM.
The corresponding values for `Cc1nc2ccc(NC(=O)c3ccc([N+](=O)[O-])cc3[N+](=O)[O-])cc2s1` are 35.7 µM and greater than 100 µM.
The corresponding values for `COc1ccc(-c2ccc(C#N)c(SCC(=O)OCc3ccccc3)n2)cc1OC` are 23.9 µM and 26.8 µM.
Take `N#Cc1nc(-c2ccc(OCc3ccccc3)cc2)oc1NCCCn1ccnc1`: the IC50 was 37.5 µM and the IC90 came to 43 µM.
With `COc1cc2c(cc1NC(=O)CN1C(=O)NC3(CCc4ccccc43)C1=O)oc1ccccc12` (stereo not given), the IC50 is 19.9 µM and the IC90 is greater than 100 µM.
Regarding `O=C(/C=C/c1ccccc1)N1CCN(CCN2C(=O)c3cccc4cccc(c34)C2=O)CC1`, the IC50 is 2.44 µM and the IC90 came out at 3.96 µM.
Consider `C(C#CCCCCCCCCC[n+]1ccccc1)#CCCCCCCCCC[n+]1ccccc1`, for which the IC50 is 4.02 µM and the IC90 turned out to be 6.85 µM.
For `COc1ccc(-c2nc(CN3CCN(c4cc(C)nc(C)c4)CC3)c(C)o2)c2ccccc12`, the IC50 is 23.4 µM and the IC90 turned out to be 25.6 µM.
The corresponding values for `Cc1nc(-c2ccccc2)sc1C(=O)/C=C/c1ccccc1` are 12.4 µM and 13.6 µM.
In the same order, the values of `CCOC(=O)COc1ccc(/C=C2\NC(=S)N(CC)C2=O)cc1` are 3.1 µM and 3.44 µM.
In the same order, the values of `CCOC(=O)C(/C=C(\C#N)C(=O)OCC)=C(/N)N1CCN(c2ccc(Cl)cc2)CC1` are 11.9 µM and greater than 25 µM.
With `CCc1ccc(C2=NN(c3ccc(S(N)(=O)=O)cc3)C(c3ccc(F)cc3)C2)cc1` (stereo not given), the IC50 is 40.5 µM and the IC90 came out at 53.3 µM.
Turning to `CN1CCN(CC(=O)N2CCn3c4c(c5cc(C6CCCCC6)ccc53)CCCC42)CC1` (stereo not given), the IC50 is 18 µM and the IC90 was 21.6 µM.
In the same order, the values of `COc1ccc(CN2CCCC(C(=O)c3ccc(SC)cc3)C2)cc1Cn1cccn1` (stereo not given) are 25.2 µM and 28.2 µM.
In the same order, the values of `COc1ccc(Cl)cc1C(=O)O/N=C(\N)c1ccccn1` are 76.4 µM and greater than 100 µM.
`Cc1ccc2nc3c(cc(C(=O)NCc4ccco4)c(=N)n3Cc3ccco3)c(=O)n2c1`: the IC50 is 53.6 µM and the IC90 is greater than 100 µM.
As to `Cc1ccc(C2=NN(C)c3nc4ccccc4n3C2)cc1`, the IC50 is 59.3 µM and the IC90 is greater than 100 µM.
Take `COC(=O)C1CC(=O)N(c2ccc(OCc3ccccc3Cl)cc2)C1` (stereo not given): the IC50 is 1.26 µM and the IC90 turned out to be 4.8 µM.
In the same order, the values of `Cc1ccc(NS(=O)(=O)c2ccc(NC(=O)CN(c3cc([N+](=O)[O-])ccc3C)S(C)(=O)=O)cc2)c(C)c1` are 33.1 µM and greater than 100 µM.
Regarding `Cc1ccc(Nc2nc(N)nc(CN3CCc4ccccc4C3)n2)cc1`, the IC50 was 5.61 µM and the IC90 was found to be 18.6 µM.
In the same order, the values of `CCn1cnc2sc(C(=O)Oc3ccc(Br)cc3)c(C)c2c1=O` are 4.83 µM and 8.17 µM.
In the same order, the values of `Cc1nn(-c2ccccc2)c(C)c1/C=N/NC(=O)c1cc(-c2cccc3ccccc23)n[nH]1` are 48.3 µM and greater than 100 µM.
In the same order, the values of `COc1ccc(-c2cc(C3CCN(C(=O)OC(C)(C)C)CC3)[nH]n2)cc1` are 38.7 µM and 53.7 µM.
As for `O=C(CN1CCC(n2nnc3cc(C(F)(F)F)ccc32)CC1)NCc1cccs1`, the IC50 is 37.2 µM and the IC90 amounted to 47.9 µM.
Consider `Cc1cc(/C=N/n2cnnc2)c(C)n1-c1ccc(OCc2ccc(Cl)cc2Cl)cc1`, for which the half-inhibitory concentration (IC50) was 17.6 µM and the IC90 was 21.5 µM.
In the same order, the values of `CCOC(=O)c1c(-c2ccc(OC)cc2)csc1NC(=O)CNCc1ccco1` are 22.3 µM and 25.5 µM.
The corresponding values for `CCCOc1ccc(N2CC(C(=O)Nc3ccccn3)CC2=O)cc1` (stereo not given) are 36.4 µM and greater than 100 µM.
As to `Clc1cccc(-c2cc3nc4c(c(NCc5ccco5)n3n2)CCCC4)c1`, the IC50 is 22.1 µM and the IC90 was found to be 24.7 µM.
The corresponding values for `O=C(NCCCN1CCOCC1)c1cc2c([nH]c3ccccc32)c(-c2cccc(Br)c2)n1` are 18.6 µM and 24.3 µM.
The corresponding values for `Cc1ccc(C(C(=O)NCC2CCCO2)N(Cc2ccccc2)C(=O)c2ccc(-c3ccccc3)[nH]2)o1` (stereo not given) are 60.9 µM and greater than 100 µM.
In the same order, the values of `CC1(c2cc([N+](=O)[O-])cc([N+](=O)[O-])c2)CC(C)(C)N(C(=O)c2ccccc2)c2ccccc21` (stereo not given) are 20.8 µM and 28.9 µM.
As for `CC[C@@H](C)[C@H](CN[C@H](CNC)C(C)C)NC[C@@H](C)c1ccc(CC(C)C)cc1`, the IC50 is 13.3 µM and the IC90 was found to be 15.4 µM.
The corresponding values for `O=C(NC(C(=O)N/N=C/c1cccc2ccccc12)c1n[nH]c(=O)c2ccccc12)c1ccccc1` (stereo not given) are 58.8 µM and greater than 100 µM.
The corresponding values for `C=CCc1cc(C)ccc1OCCCC(C(=O)OCC)C(=O)OCC` are 28.1 µM and 52.1 µM.
For `Cc1cccc(-c2oc3ccc(-c4ccc5c(c4)OCO5)cc3c2C#Cc2cncn2C)c1`, the IC50 is 2.86 µM and the IC90 was 3.23 µM.
Regarding `CCc1ccc(NC(=S)/N=C(\N)Nc2nc(C)c3cc(CC)ccc3n2)cc1`, the 50% inhibitory concentration (IC50) is 10.9 µM and the IC90 is 21.1 µM.
In the same order, the values of `CCCN(CCC)CCNC(=O)c1cc2c(-c3ccc(Cl)cc3)nn(C)c2s1` are 23.9 µM and 27.1 µM.
As for `CCNC(=S)NN=C1c2ccccc2-c2ccccc21`, the IC50 is 11 µM and the IC90 is greater than 25 µM.
For `CCC(=O)N1c2ccc(S(=O)(=O)CCC(=O)N3CCn4c3nc3ccccc34)cc2CC1C` (stereo not given), the IC50 is 23.4 µM and the IC90 was determined as 27.5 µM.
`CCOC(=O)c1cc(C)nc(Sc2ccc(C)cc2)c1C#N`: the IC50 is 5.32 µM and the IC90 turned out to be 7.74 µM.
Consider `Cc1ccc(-n2cc(CNCCn3nc(C)cc3C)c(-c3ccc(F)cc3)n2)cc1`, for which the IC50 was 8.2 µM and the IC90 turned out to be 13.5 µM.
The corresponding values for `O=C(c1cc([N+](=O)[O-])cc([N+](=O)[O-])c1)N(Cc1nnc(-c2ccccc2Cl)o1)C1CC1` are 15.8 µM and 23.5 µM.
For `CCCSc1nn2c(=O)c3ccccc3nc2s1`, the IC50 was 14.7 µM and the IC90 stood at 28.1 µM.
The corresponding values for `NN(Cc1ccccc1)C(=S)Nc1ccc(Cl)c(Cl)c1` are 25.2 µM and 39.4 µM.
The corresponding values for `CCOc1ccc2nc(NC(=O)C34CC5CC(CC(NC(C)=O)(C5)C3)C4)sc2c1` are 23.2 µM and 38.4 µM.
In the case of `N#CCCN(C(=O)COC(=O)CCc1c[nH]c2ccccc12)c1ccc(F)cc1`, the IC50 was 34.4 µM and the IC90 worked out at 68.5 µM.
The corresponding values for `On1onc2c3cc(-c4ccccc4)nc3ccc21` are less than 0.2 µM and less than 0.2 µM.
The corresponding values for `Cc1nc(-c2ccc(Cl)cc2)sc1C1(C)CC(c2ccc(C#N)cc2)=NO1` (stereo not given) are 43.6 µM and greater than 100 µM.
Regarding `CCOC(=O)C1=NOC(CNc2ncc(C(F)(F)F)cc2Cl)C1` (stereo not given), the IC50 was 11.3 µM and the IC90 is 14.4 µM.
In the same order, the values of `COc1ccc(-c2cc(C3CCN(Cc4cccc(C(F)(F)F)c4)CC3)[nH]n2)cc1` are 13.3 µM and 24.9 µM.
In the same order, the values of `Cc1cc(C)c(C)c(N=Nc2nc3ccccc3n2C)c1C` are 11.2 µM and 12.6 µM.
In the same order, the values of `CN(C)C(=O)c1ccc(NC(=O)COC(=O)c2cc3c(s2)CCCCC3)cc1` are 91.6 µM and greater than 100 µM.
On to `COc1ccc(-c2csc3ncnc(N4CCN(c5ccccc5OC)CC4)c23)cc1`, for which the IC50 is 22.8 µM and the IC90 is 25.5 µM.
In the same order, the values of `CC(NC(=O)CCl)c1ccc(Cl)c(Cl)c1` (stereo not given) are 4.1 µM and 7.74 µM.
The corresponding values for `Cc1c(Cl)cccc1-c1ccc(CNCc2ccccn2)o1` are 4.66 µM and 13.6 µM.
With `COc1ccc(C2=NC(=O)/C(=C\c3cc(OC)c(OC)c(OC)c3)O2)cc1`, the IC50 is 11.1 µM and the concentration for an effect of 90% (IC90) came out at 16.2 µM.
In the same order, the values of `Cc1cc(C(=O)CCl)c(C)n1-c1cccc([N+](=O)[O-])c1` are 2.42 µM and 6.49 µM.
Turning to `CCOc1cc2c3c(c1)C1(C(=O)N3C(C)(C)CC2C)C(C#N)=C(N)N2C(=C1C#N)Nc1ccccc12` (stereo not given), the IC50 was 37.8 µM and the IC90 is greater than 100 µM.
The corresponding values for `O=C(/C=C/c1cccnc1)c1cccc(O)c1` are 22.4 µM and 24.1 µM.
The corresponding values for `O=C(OCc1csc(Nc2ccccc2)n1)c1ccc(Cl)cc1` are 46.4 µM and 53 µM.
The corresponding values for `CCOC(=O)c1ccc(NC(=O)Cn2ncc(Cl)c(Cl)c2=O)cc1` are less than 0.2 µM and 2.19 µM.
